As usually defined, the half-life is the time needed for the level to fall by half in the phase considered. Lower therefore signals fast loss. `NC(=CC=CC(=O)O)C(=O)O` [2-Aminomuconate, 2-aminohexa-2,4-diene-1,6-dioate] yielded a half-life (buffer, pH 9.5) of 20 h. Moreover, for the setting “pH 8.0 in potassium phosphate buffer”, the “amount lost on freezing and thawing” value is listed as 50%. Moreover, the “decomposition on freezing and thawing” value (pH 9.5 (Tris-HCl)) is reported as “about 2%”. For the same compound, the “amount lost on storage” value (solution stored on ice for 50 h, 0.34 mM) came to 30%.

The values above are taken from patent US6432683B1, “Preparation of 2-aminomuconate from 2-aminophenol by coupled enzymatic dioxygenation and dehydrogenation reactions” (The United States of America as represented by the …, priority 2000, dated 2002).
